Consider 1 molecule from publication PMC5675407, “Sugar analog synthesis by in vitro biocatalytic cascade: A comparison of alternative enzyme complements for dihydroxyacetone phosphate production as a precursor to rare chiral sugar synthesis” (PLoS ONE, 2017).

The test concerns the target T1, FruASc (Staphylococcus carnosus, UniProt Q07159).
T1 construct: gene fda; recombinant from pETScFruA, E. coli
Put plainly: LC-MS of aldol product in enzyme cascade. It is filed as biochemical. Particulars: DHAP made in situ; acetaldehyde or glyceraldehyde-3-phosphate 10 mM, pH 7.9, 22 °C.

SMILES strings stand for the structures.

T1 sequence (Q07159 2-296): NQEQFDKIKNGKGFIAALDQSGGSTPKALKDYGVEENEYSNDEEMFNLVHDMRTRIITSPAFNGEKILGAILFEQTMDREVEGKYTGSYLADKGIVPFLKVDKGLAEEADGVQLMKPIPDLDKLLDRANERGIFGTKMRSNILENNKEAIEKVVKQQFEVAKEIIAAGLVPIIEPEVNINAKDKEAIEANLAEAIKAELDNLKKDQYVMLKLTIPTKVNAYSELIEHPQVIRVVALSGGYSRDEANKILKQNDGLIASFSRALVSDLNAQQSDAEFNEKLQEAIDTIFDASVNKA

Take `O=C(CO)COP(=O)(O)O` [DHAP]: the “LC-MS of aldol product in enzyme cascade” value is listed as “as DHAP was consumed by the aldolase reaction, greater conversion to DHAP occurred”.
